What is called IC50 is the point on the concentration scale where inhibition reaches its midpoint.

Like-named read-outs stand apart in the source and are kept apart here.

In the assay the test system is firefly luciferase activity. Briefly: Dual-Glo firefly/renilla luciferase reporter assay in cells. Type of assay: cell-based. For orientation: Reporter assays use an easily measured gene product as a stand-in for the process of interest.
Setting [1] is: 24 hrs compound treatment, starting from 3 uM, 1:3 dilution, 10 points, read-out: Firefly Luciferase IC50.
Where [2] appears, read: 24 h, read-out: Firefly Luciferase IC50 (μM).

As to `C[C@H](O)[C@H](C)n1nnc(-c2ccccc2Nc2ccc(C(F)(F)F)cc2)n1` [Compound 192, (2S,3S)-3-(5-(2-((4-(trifluoromethyl)phenyl)amino)phenyl)-2H-tetrazol-2-yl)butan-2-ol], under setting [1], the IC50 was under 0.1 µM. As for `CN(C)CCCn1nnc(-c2ccccc2Nc2ccc(OC(F)(F)F)cc2)n1` [Compound 63, 2-(2-(3-(dimethylamino)propyl)-2H-tetrazol-5-yl)-N-(4-(trifluoromethoxy)phenyl) Aniline], the IC50 under setting [1] was in the range of 1 to 5 µM. `OCCn1nnc(-c2cccnc2Nc2ccc(OC(F)(F)F)cc2)n1` [Compound 75, 2-(5-(2-((4-(trifluoromethoxy)phenyl)amino)pyridin-3-yl)-2H-tetrazol-2-yl)ethanol]: under setting [2], the IC50 was in the range of 0.1 to 1 µM. Regarding `CO[C@@H](C)[C@H](C)n1nnc(-c2ccccc2Nc2ccc(C(F)(F)F)cc2)n1` [Compound 210, 2-(2-((2S,3S)-3-methoxybutan-2-yl)-2H-tetrazol-5-yl)-N-(4-(trifluoromethyl)phenyl)aniline], the half-inhibitory concentration (IC50) under setting [1] is under 0.1 µM. As to `OCCn1nnc(-c2ccccc2Nc2ccccc2F)n1` [Compound 36, 2-(5-(2-((2-fluorophenyl)amino)phenyl)-2H-tetrazol-2-yl)ethanol], the IC50 under setting [2] lay in the range of 1 to 5 µM. Consider `FC(F)(F)c1ccc(Nc2ccccc2-c2nnn(CC3CCC3)n2)cc1` [Compound 170, 2-(2-(Cyclobutylmethyl)-2H-tetrazol-5-yl)-N-(4-(trifluoromethyl)phenyl)aniline], for which the IC50 under setting [1] was in the range of 0.1 to 1 µM. For the compound `OCCn1nnc(-c2ccc(Cl)cc2Nc2ccc(C(F)(F)F)cc2)n1` [Compound 239, 2-(5-(4-chloro-2-((4-(trifluoromethyl)phenyl)amino)phenyl)-2H-tetrazol-2-yl)ethanol], the IC50 under setting [2] was under 0.1 µM. `OCCn1nnc(-c2cc(Br)ccc2Nc2ccc(C(F)(F)F)cc2)n1` [Compound 254, 2-[5-[5-bromo-2-[4-(trifluoromethyl)anilino]phenyl]tetrazol-2-yl]ethanol]: the IC50 under setting [1] was under 0.1 µM. Consider `OCCn1nnc(-c2ccccc2Nc2cccc(OC(F)(F)F)c2)n1` [Compound 24, 2-(5-(2-((3-(Trifluoromethoxy)phenyl)amino)phenyl)-2H-tetrazol-2-yl)ethanol], for which the IC50 under setting [1] fell in the range of 0.1 to 1 µM. With `FC(F)(F)c1ccc(Nc2ccccc2-c2nnn(-c3cccnc3)n2)cc1` [Compound 165, 2-[2-(3-pyridyl)tetrazol-5-yl]-N-[4-(trifluoromethyl)phenyl]aniline], the IC50 under setting [1] is 1 to 5 µM. Same read-out and setting: next, `COCC(C)n1nnc(-c2ccccc2Nc2ccc(C(F)(F)F)cc2)n1` (centres unmarked) [Compound 129, 2-(2-(1-methoxypropan-2-yl)-2H-tetrazol-5-yl)-N-(4-(trifluoromethyl)phenyl) Aniline]: under 0.1 µM. Take `OCCn1nnc(-c2c(F)cccc2Nc2ccc(C(F)(F)F)cc2)n1` [Compound 187, 2-(5-(2-fluoro-6-((4-(trifluoromethyl)phenyl)amino)phenyl)-2H-tetrazol-2-yl)ethan-1-ol]: under setting [2], the IC50 is under 0.1 µM. Consider `OCCn1nnc(-c2cc(C(F)F)ccc2Nc2ccc(C(F)(F)F)cc2)n1` [Compound 266, 2-[5-[5-(difluoromethyl)-2-[4-(trifluoromethyl)anilino]phenyl]tetrazol-2-yl]ethanol], for which the IC50 under setting [1] lay in the range of 0.1 to 1 µM.

For the compound `COc1ccc(Nc2ccccc2-c2nnn(CCO)n2)cc1` [Compound 12, 2-[5-[2-(4-methoxyanilino)phenyl]tetrazol-2-yl]ethanol], the half-maximal inhibitory concentration (IC50) under setting [2] lay in the range of 0.1 to 1 µM.

With `OCCn1nnc(-c2ccccc2Nc2ccc(Cl)c(Cl)c2)n1` [Compound 251, 2-(5-(2-((3,4-dichlorophenyl)amino)phenyl)-2H-tetrazol-2-yl)ethanol], the IC50 under setting [1] was in the range of 0.1 to 1 µM. Still for that read-out and setting: next, `OC1(Cn2nnc(-c3ccccc3Nc3ccc(C(F)(F)F)cc3)n2)CCCN(c2ccccc2)C1` (centres unmarked) [Compound 176]: 0.1 to 1 µM. As for `OCCn1nnc(-c2ccccc2Nc2cccc(Cl)c2)n1` [Compound 250, 2-(5-(2-((3-chlorophenyl)amino)phenyl)-2H-tetrazol-2-yl)ethanol], the IC50 under setting [2] lay within 1 to 5 µM.
